Values joined by “and” are separate entries in the source; they are usually repeats but may differ in a detail not shown here. Equal entries are not always repeated.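 Compound exposure: 48 hours, 5 concentrations, 96-well plates. GI50 = concentration required for 50% inhibition of growth.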 Active and inactive are the calls of the source. No stated cut-off is given here; in the data, active = GI50 up to about 1.1 µM and inactive = higher.
Key:
Experiment in all cases: NCI-60 cell line screen, 48 h
[1] = tested on: M14
[2] = tested on: CCRF-CEM
[3] = tested on: HT-29
[4] = tested on: HOP-62
[5] = tested on: RPMI-8226
[6] = tested on: NCI-H522
[7] = tested on: LOX IMVI
[8] = tested on: EKVX
[9] = tested on: IGROV-1
[10] = tested on: DMS-273
[11] = tested on: SNB-75
[12] = tested on: TK-10
[13] = tested on: PC-3
[14] = tested on: SR
[15] = tested on: OVCAR-4
[16] = tested on: NCI/ADR-RES
[17] = tested on: DU-145
[18] = tested on: MDA-MB-435
[19] = tested on: OVCAR-5
[20] = tested on: MCF7

Compound | GI50 [1] | GI50 [2] | GI50 [3] | GI50 [4] | GI50 [5] | GI50 [6] | GI50 [7] | GI50 [8] | GI50 [9] | GI50 [10] | GI50 [11] | GI50 [12] | GI50 [13] | GI50 [14] | GI50 [15] | GI50 [16] | GI50 [17] | GI50 [18] | GI50 [19] | GI50 [20]
O=C(Oc1ccc2c(-c3ccccc3)c(C(=O)Nc3ccc(Cl)cc3)c(=O)oc2c1)c1ccccc1 | > 100 µM (inactive) | > 100 µM (inactive) | > 100 µM (inactive) | > 100 µM (inactive) | > 100 µM (inactive) | > 100 µM (inactive) | > 100 µM (inactive) | > 100 µM (inactive) | > 100 µM (inactive) | > 100 µM (inactive) | 52.2 µM (inactive) | > 100 µM (inactive) | – | – | – | – | – | – | – | –
OC1(c2ccccc2)CC2CCC(C1)N2CCCC(O)(c1ccccc1)c1ccccc1 (stereo not drawn) | 16.4 µM (inactive) | 4.33 µM (inactive) | 2.78 µM (inactive) | 15.5 µM (inactive) | 2.28 µM (inactive) | 10.2 µM (inactive) | 10.6 µM (inactive) | 16.5 µM (inactive) | 7.98 µM (inactive) | – | 11.2 µM (inactive) | 12.7 µM (inactive) | 3.44 µM (inactive) | 11.8 µM (inactive) | 33.8 µM (inactive) | 17.7 µM (inactive) | 21.4 µM (inactive) | 12 µM (inactive) | 25.8 µM (inactive) | 16.1 µM (inactive)
CSC1(C(=O)O)C2CCC3C2CCC31 (stereo not drawn) | > 100 µM (inactive) | 52.6 µM (inactive) | > 100 µM (inactive) | > 100 µM (inactive) | > 100 µM (inactive) | > 100 µM (inactive) | > 100 µM (inactive) | > 100 µM (inactive) | > 100 µM (inactive) | – | > 100 µM (inactive) | > 100 µM (inactive) | > 100 µM (inactive) | > 100 µM (inactive) | > 100 µM (inactive) | > 100 µM (inactive) | > 100 µM (inactive) | > 100 µM (inactive) | > 100 µM (inactive) | > 100 µM (inactive)
CCN(C(C)=O)c1cnc(/C=N/NC(N)=S)c2ccccc12 | 2.58 µM (inactive) | 2.54 µM (inactive) | 3.49 µM (inactive) | 5.61 µM (inactive) | 3.08 µM (inactive) | 2.95 µM (inactive) | 1.38 µM (inactive) | 4.29 µM (inactive) | 2.76 µM (inactive) | – | 18.7 µM (inactive) | 4.59 µM (inactive) | 4.15 µM (inactive) | 0.631 µM (active) | 9.31 µM (inactive) | 10.6 µM (inactive) | 2.06 µM (inactive) | 4.42 µM (inactive) | > 20 µM (inactive) | 2.81 µM (inactive)
Cc1ccc2cccc(OC(=O)c3cc4c(cc3Cl)Sc3nccn3S4(=O)=O)c2n1 | 8.79 µM (inactive) | 2.5 µM (inactive) | 10 µM (inactive) | 0.661 µM (active) | 2.33 µM (inactive) | 9.82 µM (inactive) | 7.13 µM (inactive) | 16.7 µM (inactive) | 6.37 µM (inactive) | – | 9.66 µM (inactive) | 11 µM (inactive) | 4.39 µM (inactive) | 3.75 µM (inactive) | 11.3 µM (inactive) | 14 µM (inactive) | 5.83 µM (inactive) | 9.59 µM (inactive) | 23.8 µM (inactive) | 5.71 µM (inactive)
COc1c2c3c4c(c(OC)c(=O)c5c(O)cc(OC)c(c6c(OC)cc(O)c(c1=O)c63)c54)C(C(C)O)C2C(C)O (stereo not drawn) | 1.07 µM (active) | 0.542 µM (active) | 1.16 µM (inactive) | 0.689 µM (active) | 0.706 µM (active) | 0.415 µM (active) | 0.883 µM (active) | 0.944 µM (active) | 0.853 µM (active) | – | 0.518 µM (active) | 1.72 µM (inactive) | 0.594 µM (active) | 1.31 µM (inactive) | 1.32 µM (inactive) | 0.923 µM (active) | 2.43 µM (inactive) | 0.67 µM (active) | 1.28 µM (inactive) | 1.03 µM (active)
CNc1cccc2c1C(C)C[C@]1(C)C(=O)Nc3ccccc3[C@H]21 (stereo partly drawn) | 20.2 µM (inactive) | 40.7 µM (inactive) | 28 µM (inactive) | 19.8 µM (inactive) | 54.6 µM (inactive) | 20.5 µM (inactive) | 15.8 µM (inactive) | 41.7 µM (inactive) | 35.8 µM (inactive) | – | 12.1 µM (inactive) | 13.8 µM (inactive) | 27.4 µM (inactive) | 23.8 µM (inactive) | 18.1 µM (inactive) | 23.1 µM (inactive) | 39.1 µM (inactive) | 23.5 µM (inactive) | 31.1 µM (inactive) | 22.3 µM (inactive)
CCOC(=O)c1cccc(/N=N/c2nc[nH]c2/C=C/C(=O)OC)c1 | 13.3 µM (inactive) | 3.95 µM (inactive) | 6.98 µM (inactive) | 6.35 µM (inactive) | 9.02 µM (inactive) | 9.38 µM (inactive) | 7.43 µM (inactive) | 26.5 µM (inactive) | 7.53 µM (inactive) | – | 18.5 µM (inactive) | 28.4 µM (inactive) | 17.8 µM (inactive) | 2.11 µM (inactive) | 6.58 µM (inactive) | 4.1 µM (inactive) | 37.4 µM (inactive) | 37 µM (inactive) | 76.6 µM (inactive) | 4.18 µM (inactive)
Cc1cn(C2CCC(CO)(CF)O2)c(=O)[nH]c1=O (stereo not drawn) | > 100 µM (inactive) | > 100 µM (inactive) | > 100 µM (inactive) | > 100 µM (inactive) | > 100 µM (inactive) | > 100 µM (inactive) | > 100 µM (inactive) | > 100 µM (inactive) | > 100 µM (inactive) | – | > 100 µM (inactive) and 96.6 µM (inactive) | > 100 µM (inactive) | > 100 µM (inactive) | > 100 µM (inactive) | > 100 µM (inactive) | > 100 µM (inactive) | > 100 µM (inactive) | > 100 µM (inactive) | > 100 µM (inactive) | > 100 µM (inactive)
C(=C(c1ccc(OC2CCCCO2)cc1)c1ccc(OC2CCCCO2)cc1)c1ccccc1 (stereo not drawn) | 0.697 µM (active) | 0.246 µM (active) | 0.386 µM (active) | 0.925 µM (active) | 0.294 µM (active) | 1.09 µM (active) | 0.232 µM (active) | 0.456 µM (active) | 0.524 µM (active) | – | 0.605 µM (active) | 1.14 µM (inactive) | 0.469 µM (active) | 0.371 µM (active) | 0.392 µM (active) | 0.883 µM (active) | 0.838 µM (active) | 0.557 µM (active) | 1.06 µM (active) | 0.0995 µM (active)
C=C(Cl)C(C)(Cl)CCC(Cl)C(C)(C)Cl (stereo not drawn) | 70.8 µM (inactive) | 30.3 µM (inactive) | 43.7 µM (inactive) | > 100 µM (inactive) | 20.5 µM (inactive) | 23.1 µM (inactive) | 18.2 µM (inactive) | > 100 µM (inactive) | 47.5 µM (inactive) | – | 41.9 µM (inactive) | > 100 µM (inactive) | 54.7 µM (inactive) | 23.8 µM (inactive) | 53.7 µM (inactive) | > 100 µM (inactive) | > 100 µM (inactive) | 62.2 µM (inactive) | > 100 µM (inactive) | 37.8 µM (inactive)
COc1cc2ccccc2oc1=O | 81.7 µM (inactive) | 41.9 µM (inactive) | > 100 µM (inactive) | 59.8 µM (inactive) | > 100 µM (inactive) | 32.6 µM (inactive) | > 100 µM (inactive) | 51.1 µM (inactive) | > 100 µM (inactive) | – | 57.3 µM (inactive) | 77.6 µM (inactive) | > 100 µM (inactive) | > 100 µM (inactive) | > 100 µM (inactive) | 97.5 µM (inactive) | > 100 µM (inactive) | > 100 µM (inactive) | > 100 µM (inactive) | 54.8 µM (inactive)
N#Cc1ccc(OCc2ccc3nc(-c4ccccc4)c(Cl)nc3c2)cc1 | > 100 µM (inactive) | > 100 µM (inactive) | > 100 µM (inactive) | 42.7 µM (inactive) | > 100 µM (inactive) | > 100 µM (inactive) | > 100 µM (inactive) | > 100 µM (inactive) | > 100 µM (inactive) | – | > 100 µM (inactive) | 58.1 µM (inactive) | > 100 µM (inactive) | > 100 µM (inactive) | > 100 µM (inactive) | > 100 µM (inactive) | > 100 µM (inactive) | > 100 µM (inactive) | > 100 µM (inactive) | > 100 µM (inactive)
COc1ccc(S(=O)(=O)N2C(=O)CCC2C(=O)NN)cc1 (stereo not drawn) | > 100 µM (inactive) | > 100 µM (inactive) | > 100 µM (inactive) | > 100 µM (inactive) | > 100 µM (inactive) | 25.5 µM (inactive) | > 100 µM (inactive) | > 100 µM (inactive) | > 100 µM (inactive) | – | > 100 µM (inactive) | > 100 µM (inactive) | > 100 µM (inactive) | > 100 µM (inactive) | > 100 µM (inactive) | > 100 µM (inactive) | > 100 µM (inactive) | > 100 µM (inactive) | > 100 µM (inactive) | > 100 µM (inactive)
COc1ccc2c(c1)CCN1CCc3ccccc3CC21 (stereo not drawn) | 18.2 µM (inactive) | 33.3 µM (inactive) | 27.8 µM (inactive) | 72.8 µM (inactive) | 19.1 µM (inactive) | 67.3 µM (inactive) | 24 µM (inactive) | > 100 µM (inactive) | 56.5 µM (inactive) | – | 30.2 µM (inactive) | 35.7 µM (inactive) | 30 µM (inactive) | 35.2 µM (inactive) | > 100 µM (inactive) | 42.9 µM (inactive) | 65.2 µM (inactive) | 26.8 µM (inactive) | 30.3 µM (inactive) | 60.8 µM (inactive)
